Laboratory results from patent publication US11135236B2, “Retinoic acid receptor gamma agonists to attenuate anthracycline-induced cardiotoxicity” (Northwestern University, priority 2018, dated 2021).

Tests used:
control hiPSC-CMs [1] = assay: hiPSC-CM cell viability after 72 h doxorubicin (CellTiter-Glo); format: cell-based, human
Protocol: (§1) 384-well plate-based cell viability, caspase 3/7 activity, and reactive oxygen species (ROS) assays. […] Luminescence was measured using a VarioSkan Lux Multi-Mode Reader (Thermo Scientific) with an integration time of 0.25 sec. 10 μM staurosporine (MedChemExpress) was used as a positive control. […] 10 μM staurosporine and 50 μM menadione (both MedChemExpress) was used as a positive control, respectively. Data were analyzed using Prism 7.0 software (GraphPad) using standard dose-response guidelines.

RARG-KO hiPSC-CMs [2] = assay: as above; format: cell-based, human
Protocol: as §1

RARG-OE hiPSC-CMs [3] = assay: as above; format: cell-based, human
Protocol: as §1

RARG-WT hiPSC-CMs [4] = assay: as above; format: cell-based, human
Protocol: as §1

control hiPSC-CMs [5] = assay: caspase 3 and 7 activity after 24 h doxorubicin (Caspase 3/7-Glo); format: cell-based, human
Protocol: as §1

RARG-KO hiPSC-CMs [6] = assay: as above; format: cell-based, human
Protocol: as §1

RARG-OE hiPSC-CMs [7] = assay: as above; format: cell-based, human
Protocol: as §1

MCF7 = assay: breast cancer cell viability after 72 h of doxorubicin and RARG agonists co-treatment; format: cell-based, human; conditions: MCF7, doxorubicin 72 h, Vehicle (no agonist)
Protocol: as §1
(§2) Breast cancer cell lines. Four human breast cancer cell lines were used, MCF7 (adenocarcinoma, ATCC HTB-22) and Hs 578T (carcinsarcoma, ATCC HTB-126) both cultured in RPMI 1640 (Corning) with 10% FBS (Opti-Gold, GenDEPOT), MDA-MB-231 (adenocarcinoma, ATCC HTB-26) and MDA-MB-468 (adenocarcinoma, ATCC HTB-131) both cultured in DMEM (Corning) with 10% FBS. All cells were cultured on uncoated tissue culture plates (Greiner) and passaged with TrypLE Express (Gibco).

C57BL/6J Mice = assay: mouse model of doxorubicin-induced cardiomyopathy, echocardiography; format: in vivo; conditions: doxorubicin 3 mg kg^−1 intraperitoneal twice weekly for 3 weeks
From the text: Mouse model of doxorubicin-induced cardiomyopathy and drug administration. […] For the control group, we treated mice with corn oil in the same schedule as agonist administration. We recorded an echocardiogram once a week (day 0, day 7, day 14, and day 21) and terminated the experiment at day 21. Hearts were harvested for western blot analyses as mentioned above.
Echocardiographic evaluation. Mice were studied at baseline and weekly during the protocol under light anesthesia with isoflurane (induction 3%, maintenance 1.5%). 2D images in the parastemal short axis were obtained with a GE Vivid 7 ultrasound system (GE Healthcare) equipped with a 13 MHz transducer. Left ventricular end-systolic (LVESD) and end-diastolic (LVEDD) dimensions were measured and left ventricular fractional shortening (FS) was calculated.

hiPSC-CMs [8] = assay: DNA damage by γH2AX staining; format: cell-based, human; conditions: patient hiPSC-CMs, 24 h doxorubicin
Protocol: Immunofluorescent staining. hiPSCs were dissociated with 0.5 mM EDTA and plated onto Matrigel-coated Nunc Lab-Tek II 8-chamber slides in E8 medium for three days (E8Y for the first 24 h). Cells were fixed, permeabilized, and stained for POU5F1, SSEA4, SOX2, TRA-1-60 with the PSC 4-Marker Immunocytochemistry Kit (Invitrogen) according to manufacturer's instructions. Cardiomyocytes were dissociated with Liberase TH (as above) and plated onto Matrigel-coated No 1.5 coverslips as previously described and allowed to adhere and spread for 4 days. Cells were fixed with 4% paraformaldehyde (Electron Microscopy Services) in DPBS for 15 min at RT, permeabilized with 1% saponin (MilliporeSigma) in DPBS for 15 min at RT, blocked with 3% bovine serum albumin (BSA, MilliporeSigma) in DPBS for 30 min at RT, and stained overnight in 3% BSA/DPBS at 4° C. with 1:200 polyclonal rabbit IgG anti-TNNT2 (Abcam, ab45932), 1:500 monoclonal mouse IgG1 anti-ACTN2 (Sigma, A7811), 1:200 monoclonal rabbit IgG RARG (Abcam, ab187159), or 1:200 monoclonal mouse IgG1 γH2AX (MilliporeSigma, 05-636). […]
Flow cytometry-based DNA damage assay. […] Cells were analyzed using a CytoFLEX (Beckman Coulter) with CytExpert 2.0 software and Prism 7.0 software (GraphPad).

hiPSC-CMs [9] = assay: reactive oxygen species assay (ROS-Glo H2O2); format: cell-based, human; conditions: isogenic hiPSC-CMs, 24 h doxorubicin
Protocol: as §1

RARG-WT hiPSC-CMs [10] = conditions: doxorubicin LD50, agonist 0 μM, 72 h
Protocol: as §1

MDA-MB-231 = assay: breast cancer cell viability after 72 h of doxorubicin and RARG agonists co-treatment; conditions: MDA-MB-231, doxorubicin 72 h, Vehicle (no agonist)
Protocol: as §1, §2

MDA-MB-468 = assay: as above; conditions: MDA-MB-468, doxorubicin 72 h, Vehicle (no agonist)
Protocol: as §1, §2

Compound: COc1cccc2c1C(=O)c1c(O)c3c(c(O)c1C2=O)C[C@@](O)(C(=O)CO)C[C@@H]3O[C@H]1C[C@H](N)[C@H](O)[C@H](C)O1 [doxorubicin]
- half-maximal lethal dose (LD50), cell viability (control hiPSC-CMs [1]): 2.622 µM
- LD50, cell viability (RARG-KO hiPSC-CMs [2]): 1.582 µM
- LD50, cell viability (RARG-OE hiPSC-CMs [3]): 2.724 µM
- LD50, cell viability (RARG-WT hiPSC-CMs [4]): 2.061 µM
- LD50, caspase 3 and 7 activity (control hiPSC-CMs [5]): 2.078 µM
- LD50, caspase 3 and 7 activity (RARG-KO hiPSC-CMs [6]): 0.314 µM
- LD50, caspase 3 and 7 activity (RARG-OE hiPSC-CMs [7]): 1.83 µM
- LD50 (MCF7): 0.490 µM
- cardiac function, as assessed by fractional shortening (C57BL/6J Mice): steady decline in cardiac function
- DNA damage (γH2AX) (hiPSC-CMs [8]): concentration-dependent increase in DNA damage
- ROS production (hiPSC-CMs [9]): concentration-dependent increase in ROS production
- RARG-WT: LD50 (RARG-WT hiPSC-CMs [10]): 0.469 µM
- LD50 (MDA-MB-231): 1.301 µM
- LD50 (MDA-MB-468): 1.330 µM
